{
  "source": "patent US20260166051A1",
  "about": "“COMPOUNDS AND METHODS FOR TREATING CANCER” (The Regents of the University of California, priority 2022, published 2026)",
  "key": {"[1]": {"test_system": "patient-derived glioma cells", "test": "Secondary screening: self-renewal in patient-derived glioma cells", "format": "cell-based, human", "settings": "patient-derived glioma cells (GBM)", "experimental": "(§1) Cells were seeded under serum-free conditions into untreated plates in DMEM/F12 media, supplemented with 10 ml/500 mL of B27 (Invitrogen), 0.145 U/ml recombinant insulin (Eli Lilly, Indiana), 0.68 U/mL heparin (Fresenius Kabi, Illinois), 20 ng/ml fibroblast growth factor 2 (bFGF, Sigma) and 20 ng/ml epidermal growth factor (EGF, Sigma). After 10 days in culture, spheres formed from singles cells were counted. Certain compounds tested in sphere-forming assay according to the present disclosure are shown below. Results are shown in FIGS. 6, 7, 8, 9-19, 26, 33-37."}, "[2]": {"test": "In vivo BBB penetration of compound 2", "settings": "mice"}, "HK-374 glioma stem cells": {"test_system": "HK-374 glioma stem cells", "test": "Sphere-forming assay: self-renewal of HK-374 glioma stem cells", "format": "cell-based, human", "settings": "n=3", "description": "FIG. 42. Inhibition of self-renewal of HK-374 glioma stem cells in the absence of radiation.\nFIG. 43. Inhibition of self-renewal of HK-374 glioma stem cells in combination with 4 Gy.\nPrimary human glioma cell lines were established at UCLA as described (Hemmati et al., PNAS 2003; Characteristics of specific gliomasphere lines can be found in Laks et al., Neuro-Oncology 2016). Primary glioblastoma cells were propagated as gliomaspheres in serum-free conditions in T25 flasks in DMEM/F12, supplemented with B27, EGF, bFGF and heparin as described previously (Vlashi et al., Journal of the NCI, 2009, 101, 350-9). All cells were grown in a humidified atmosphere at 37° C. with 5% CO2. The unique identity of all patient-derived specimen was confirmed by DNA fingerprinting (Laragen, Culver City, CA). All lines were routinely tested for mycoplasma infection (MycoAlert, Lonza). […]\nas §1, with “Certain compounds tested in sphere-forming assay according to the present disclosure are shown below. Results are shown in FIGS. 6, 7, 8, 9-19, 26, 33-37.” left out"}, "[3]": {"test": "PK study, plasma and brain concentration by mass spectrometry", "format": "in vivo", "settings": "mice; for Kp: mouse, brain/plasma, 50 mg/kg", "experimental": "FIGS. 38A and 38B. PK studies for MXC-017 and MXC-079 Mice were treated with a single dose of the novel compounds at 50 mg/kg. Plasma and brain samples were taken at indicated time points and compound concentration measured by mass spectrometry.\n(§2) After two weeks of treatment the tumors were harvested, processed into single cells and the number of glioma cells with sphere-forming capacity (glioma stem cells) was determined in a functional assay (extreme limiting dilution assay). […] (FIG. 40A)."}, "[4]": {"test_system": "non-stem glioblastoma cells", "test": "Reprogramming assay (phenotype conversion, ZsGreen-cODC reporter, flow cytometry)", "format": "cell-based, human", "settings": "spontaneous and radiation-induced", "experimental": "Primary glioblastoma cells were engineered to express a fusion protein of ZsGreen and the C-terminal degron of ornithine decarboxylase. This construct reports for lack of 26S proteasome activity and cells with low proteasome activity are enriched for cells with tumor-initiating properties. For reprogramming experiments, cells with low proteasome activity (ZsGreen-positive) were removed by FACS. ZsGreen-negative cells were treated and 5 days later the number of radiation-induced ZsGreen-positive cells was assessed by flow cytometry."}, "cytosolic beta-catenin": {"test_system": "cytosolic beta-catenin", "test": "Western blotting of patient-derived glioblastoma cells", "format": "cell-based, human", "settings": "Western blot", "description": "(§3) Compound 2 was identified in an unbiased phenotypic screen and MCX analogs were synthesized without knowledge of the actual molecular target. […] Western blotting confirmed inhibition of the downstream targets with downregulation of p-Erk, p-Akt and upregulation of cytosolic beta-catenin (FIG. 4)."}, "p-AKT": {"test_system": "p-AKT", "test": "Western blotting of patient-derived glioblastoma cells", "format": "cell-based, human", "settings": "Western blot", "description": "as §3"}, "p-ERK": {"test_system": "p-ERK", "test": "Western blotting of patient-derived glioblastoma cells", "format": "cell-based, human", "settings": "Western blot", "description": "as §3"}, "normal tissue cell lines": {"test_system": "normal tissue cell lines", "test": "Toxicity in normal tissue cell lines (NIH3T3 fibroblasts, EOC20 microglia, human astrocytes, murine neural stem/progenitor cells)", "format": "cell-based", "settings": "alone or in combination with radiation", "description": "FIGS. 5A-D. Toxicity of the analogs MXC017, 079 and 021 in fibroblasts (NIH3T3, FIG. 5A), microglia cells (EOC20, FIG. 5B), human astrocytes (FIG. 5C) or murine neural stem/progenitor cells (FIG. 5D).\nas §3"}, "HK374 cells": {"test_system": "HK374 cells", "test": "In vivo treatment of HK374 tumors, then in vitro extreme limiting dilution assay", "parameters": "species or system NSG mice", "experimental": "FIGS. 39A-D. FIG. 39A NSG mice were injected with HK374 cells. After 2 weeks post grafting, mice received a single dose of 10 Gy and 5 daily injections/week of MXC-017 or saline for 2 weeks. Tumors were harvested and an in vitro extreme limiting dilution assay was performed. […] FIG. 39D Elimination of GSCs was reflected by the complete loss of cells with self-renewing capacity.\nas §2"}, "[5]": {"test": "Tolerability and body weight in mice", "format": "in vivo, NSG mice"}, "[6]": {"test": "Histology of major organs (kidneys, lung, spleen, heart, liver)", "format": "in vivo, mice", "settings": "50 mg/kg, 2 weeks, 5 days on, 2 days off"}, "PDOX models of GBM": {"test_system": "PDOX models of GBM", "test": "Survival in PDOX models of GBM", "format": "in vivo, mice"}, "[7]": {"test_system": "Nestin-positive glioma stem cells", "test": "Immunofluorescent staining of brains of glioma bearing mice", "format": "in vivo", "settings": "combined treatment with radiation and MXC-017", "description": "(§4) FIGS. 41A-B. Immunofluorescent staining of brains of glioma bearing mice using antibodies against Olig2 and Nestin. Combined treatment with radiation and MXC-017 eliminated Nestin-positive glioma stem cells in the tumors while not effecting the sensitive normal tissue cell population of Olig2-positive oligodendrocytes in the brain. Nuclei were counterstained."}, "[8]": {"test_system": "Olig2-positive oligodendrocytes", "test": "Immunofluorescent staining of brains of glioma bearing mice", "format": "in vivo", "settings": "combined treatment with radiation and MXC-017", "description": "as §4"}, "[9]": {"settings": "single dose 50 mg/kg, brain versus plasma, read-out: enrichment in brain tissue"}, "[10]": {"settings": "read-out: brain to plasma ratio"}, "[11]": {"settings": "alone or in combination with radiation"}},
  "note": "Entries after “also recorded” stand apart in the source; their conditions may differ. Read-outs that look alike come from different tables or passages of the source.",
  "data": [
    {"smiles": "C=C1c2ccccc2NC(=O)N1Cc1ccc(S(=O)(=O)N2CCCCC2)cc1", "note": "[Compound 2, 4-Methylene-3-(4-(piperidin-1-ylsulfonyl)benzyl)-3,4-dihydroquinazolin-2(1H)-one]", "values": [
      {"measurement": "inhibition of self-renewal", "setting": "[1]", "value": "inhibits self-renewal"},
      {"measurement": "inhibition of self-renewal", "setting": "[1]; listed as compound 2", "value": "confirming activity"},
      {"measurement": "BBB penetration in vivo", "setting": "[2]", "value": "penetrates the BBB"},
      {"measurement": "BBB penetration in vivo", "setting": "[2]; listed as compound 2", "value": "confirmed the in silico prediction of BBB penetration"}
    ]},
    {"smiles": "O=C(NCc1ccc(S(=O)(=O)N2CCCCC2)cc1)n1ccc2cc(Cl)ccc21", "note": "[MHD003, 5-chloro-N-(4-(piperidin-1-ylsulfonyl)benzyl)-1H-indole-1-carboxamide]", "values": [
      {"measurement": "self renewal of glioma stem cells, % of irradiated controls", "setting": "HK-374 glioma stem cells; in combination with 4 Gy, controls DMSO, p<0.0001", "value": 6, "unit": "%"},
      {"measurement": "self-renewal of HK-374 glioma stem cells in the absence of radiation (reduced to)", "setting": "HK-374 glioma stem cells; unirradiated cells, one-way ANOVA", "value": 14, "unit": "%"}
    ]},
    {"smiles": "O=C(NCc1ccc(S(=O)(=O)N2CCCCC2)cc1)n1ccc2ccccc21", "note": "[MXC017, N-(4-(Piperidin-1-ylsulfonyl)benzyl)-1H-indole-1-carboxamide]", "values": [
      {"measurement": "peak brain concentrations", "setting": "[3]", "value": "in the micromolar range"},
      {"measurement": "Kp", "setting": "[3]; [9]", "value": 4.55},
      {"measurement": "Kp", "setting": "[3]; [10]", "value": 4.55},
      {"measurement": "phenotype conversion of non-stem glioma cells into glioblastoma-initiating cells", "setting": "[4]; listed as MCX017", "value": "prevent spontaneous and radiation-induced phenotype conversion; also recorded: prevented radiation-induced phenotype conversion"},
      {"measurement": "cytosolic beta-catenin level (TNIK target)", "setting": "cytosolic beta-catenin", "value": "stabilization"},
      {"measurement": "p-AKT level (FLT3 target)", "setting": "p-AKT", "value": "down-regulation"},
      {"measurement": "p-ERK level (FLT3 target)", "setting": "p-ERK", "value": "down-regulation"},
      {"measurement": "toxicity in normal tissue cell lines", "setting": "normal tissue cell lines", "value": "no relevant toxicity"},
      {"measurement": "number of GSCs", "setting": "HK374 cells; MXC-017 alone, 2 weeks treatment, extreme limiting dilution assay", "value": "significantly reduced"},
      {"measurement": "frequency of glioma stem cells", "setting": "HK374 cells; [11]", "value": "significantly reduced"},
      {"measurement": "number of sphere forming cells", "setting": "HK374 cells; [11]", "value": "reduced the number of sphere forming cells"},
      {"measurement": "number of GSCs", "setting": "HK374 cells; combination of radiation (single dose 10 Gy) and MXC-017", "value": "eliminated all GSCs"},
      {"measurement": "tolerability", "setting": "[5]; 5 daily injections/week for 2 weeks", "value": "well tolerated; also recorded: well tolerated in mice with no acute clinical toxicity"},
      {"measurement": "body weight during observation time of 2 weeks", "setting": "[5]; [11]", "value": "allowed animals to gain weight"},
      {"measurement": "histological signs of toxicity in major organs", "setting": "[6]", "value": "did not reveal any toxicity"},
      {"measurement": "median survival", "setting": "PDOX models of GBM; MXC-017 alone, five daily doses/week", "value": "small but significant increase"},
      {"measurement": "median survival", "setting": "PDOX models of GBM; single dose 10 Gy plus MXC-017 50 mg/kg, 5 days on, 2 days off, prolonged from 29 days, p<0.0001 log-rank", "value": 60, "unit": "days"},
      {"measurement": "Nestin-positive glioma stem cells in the tumors", "setting": "[7]", "value": "eliminated"},
      {"measurement": "effect on oligodendrocytes (normal tissue) in the brain", "setting": "[8]", "value": "not effecting; also recorded: had no effect"}
    ]},
    {"smiles": "CCN(CC)S(=O)(=O)c1ccc(CNCc2ccccc2N)cc1", "note": "[MXC021, 4-(((2-Aminobenzyl)amino)methyl)-N,N-diethylbenzenesulfonamide]", "values": [
      {"measurement": "toxicity in normal tissue cell lines", "setting": "normal tissue cell lines", "value": "no relevant toxicity"}
    ]},
    {"smiles": "O=C(NCc1ccc(S(=O)(=O)N2CCCCCC2)cc1)n1ccc2ccccc21", "note": "[MXC079, N-(4-(Azepan-1-ylsulfonyl)benzyl)-1H-indole-1-carboxamide]", "values": [
      {"measurement": "peak brain concentrations", "setting": "[3]", "value": "in the micromolar range"},
      {"measurement": "Kp", "setting": "[3]; [9]", "value": 2.63},
      {"measurement": "Kp", "setting": "[3]; [10]", "value": 2.6},
      {"measurement": "phenotype conversion of non-stem glioma cells into glioblastoma-initiating cells", "setting": "[4]; listed as MCX079", "value": "prevent spontaneous and radiation-induced phenotype conversion; also recorded: prevented radiation-induced phenotype conversion"},
      {"measurement": "cytosolic beta-catenin level (TNIK target)", "setting": "cytosolic beta-catenin", "value": "stabilization"},
      {"measurement": "p-AKT level (FLT3 target)", "setting": "p-AKT", "value": "down-regulation"},
      {"measurement": "p-ERK level (FLT3 target)", "setting": "p-ERK", "value": "down-regulation"},
      {"measurement": "toxicity in normal tissue cell lines", "setting": "normal tissue cell lines", "value": "no relevant toxicity"}
    ]}
  ]
}
